These are literature values, as cited in US20080031860A1 (N.V. NUTRICIA, priority 2003, published 2008).

The conditions of data set [1]: after 4 weeks of therapy.
The conditions of data set [2]: intake of 10-20 mg per day.

As to `CCCCCc1cc(O)c2c(c1)OC(C)(C)[C@@H]1CCC(C)=C[C@@H]21` [dronabinol], in data set [1], the appetite result was “significantly stimulates appetite”.
For calcium D-pantothenate, the reported adverse effect result in data set [2] is “diarrhea”.
